Experimental data taken from patent US20220227737A1, “NOVEL OXALYL PIPERAZINES ACTIVE AGAINST THE HEPATITIS B VIRUS (HBV)” (AiCuris GmbH & Co. KG, priority 2019, published 2022).

Columns and labels:
[1] = molecular target: T1, C-terminal truncated core protein (HBV core dimer, BODIPY-FL labelled) (UniProt P03146); assay: Biochemical capsid assembly assay (fluorescence quenching)
T1 construct: fused on or other part: One added cysteine at position 150, labelled with BODIPY-FL maleimide; The C-terminal arginine-rich domain is absent
T1 sequence (P03146 whole entry, the tested form may be a part): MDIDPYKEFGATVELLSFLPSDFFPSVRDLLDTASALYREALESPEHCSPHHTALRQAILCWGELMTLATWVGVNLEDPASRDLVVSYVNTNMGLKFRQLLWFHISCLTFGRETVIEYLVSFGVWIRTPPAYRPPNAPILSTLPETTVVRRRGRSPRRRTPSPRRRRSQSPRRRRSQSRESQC
How it was run: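 E. coli-expressed HBV core 1–149 plus Cys150 dimer, BODIPY-FL-labelled, at 1.0–2.0 μM in 50 mM HEPES pH 7.5, 0.5% DMSO. 8-point compound series; assembly started with NaCl, fluorescence quenching (ex 477/em 525 nm) read after 6 min. EC50 by non-linear regression versus 2.5 M and 0 M NaCl controls.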

HBV = HBV replication assay: HBV DNA from the supernatants of HepAD38 cells; format: cell-based; conditions: Hepatitis B virus, 144 h, HBV DNA in supernatant at day 6, read-out: Cell Activity
Protocol: Determination of HBV DNA from the Supernatants of HepAD38 Cells
The anti-HBV activity was analysed in the stable transfected cell line HepAD38, which has been described to secrete high levels of HBV virion particles (Ladner et al., 1997). In brief, HepAD38 cells were cultured at 37° C. at 5% CO2 and 95% humidity in 200 μl maintenance medium, which was Dulbecco's modified Eagle's medium/Nutrient Mixture F-12 (Gibco, Karlsruhe), 10% fetal bovine serum (PAN Biotech Aidenbach) supplemented with 50 μg/ml penicillin/streptomycin (Gibco, Karlsruhe), 2 mM L-glutamine (PAN Biotech, Aidenbach), 400 μg/ml G418 (AppliChem, Darmstadt) and 0.3 μg/ml tetracycline. Cells were subcultured once a week in a 1:5 ratio, but were usually not passaged more than ten times. For the assay 60,000 cells were seeded in maintenance medium without any tetracycline into each well of a 96-well plate and treated with serial half-log dilutions of test compound. To minimize edge effects the outer 36 wells of the plate were not used but were filled with assay medium. On each assay plate six wells for the virus control (untreated HepAD38 cells) and six wells for the cell control (HepAD38 cells treated with 0.3 μg/ml tetracycline) were allocated, respectively. In addition, one plate set with reference inhibitors like BAY 41-4109, entecavir, and lamivudine instead of screening compounds were prepared in each experiment. In general, experiments were performed thrice in triplicates. At day 6 HBV DNA from 100 μl filtrated cell culture supernatant (AcroPrep Advance 96 Filter Plate, […] Supor membran, PALL GmbH, Dreieich) was automatically purified on the MagNa Pure LC instrument using the MagNA Pure 96 DNA and Viral NA Small Volume Kit (Roche Diagnostics, Mannheim) according to the instructions of the manufacturer. EC50 values were calculated from relative copy numbers of HBV DNA In brief, 5 μl of the 100 μl eluate containing HBV DNA were subjected to PCR LC480 Probes Master Kit (Roche) together with 1 μM antisense primer […], 0.5 μM sense primer […], 0.3 μM hybprobes […]-FL and LC640-[…]-PH (TIBMolBiol, Berlin) to a final volume of […]. The PCR was performed on the Light Cycler 480 real time system (Roche Diagnostics, Mannheim) using the following protocol: Pre-incubation for 1 min at 95° C., amplification: 40 cycles×(10 sec at 95° C., 50 sec at 60° C., 1 sec at 70° C.), cooling for 10 sec at 40° C. Viral load was quantitated against known standards using HBV plasmid DNA of pCH-9/3091 (Nassal et al., 1990, Cell 63: 1357-1363) and the LightCycler 480 SW 1.5 software (Roche Diagnostics, Mannheim) and EC50 values were calculated using non-linear regression with GraphPad Prism 6 (GraphPad Software Inc., La Jolla, USA).

[2] = Cell viability assay (AlamarBlue); conditions: human, HepAD38 cells

In the case of O=C(NCC1(O)CC1)C(=O)N1CCN(C(=O)c2cc3c(F)cc(F)cc3[nH]2)CC1 [Example 53, 2-(4-(4,6-difluoro-1H-indole-2-carbonyl)piperazin-1-yl)-N-((1-hydroxycyclopropyl)methyl)-2-oxoacetamide], the IC50 [1] is reported as under 5 µM, the EC50 (HBV) is reported as under 1 µM and the CC50 at 6 days [2] is reported as over 100 µM.
O=C(NCCCO)C(=O)N1CCN(C(=O)c2cc3c(F)cc(F)cc3[nH]2)CC1 [Example 54, 2-(4-(4,6-difluoro-1H-indole-2-carbonyl)piperazin-1-yl)-N-(3-hydroxypropyl)-2-oxoacetamide] showed an IC50 [1] of under 5 µM, an EC50 (HBV) of under 1 µM and a CC50 at 6 days [2] of over 100 µM.
Compound O=C(NCC1(CO)CC1)C(=O)N1CCN(C(=O)c2cc3c(F)cc(F)cc3[nH]2)CC1 [Example 55, 2-(4-(4,6-difluoro-1H-indole-2-carbonyl)piperazin-1-yl)-N-((1-(hydroxymethyl)cyclopropyl)methyl)-2-oxoacetamide] has an IC50 [1] of under 5 µM, an EC50 (HBV) of under 1 µM and a CC50 at 6 days [2] of over 100 µM.
Compound O=C(NCCCCCCO)C(=O)N1CCN(C(=O)c2cc3c(F)cc(F)cc3[nH]2)CC1 [Example 56, 2-(4-(4,6-difluoro-1H-indole-2-carbonyl)piperazin-1-yl)-N-(6-hydroxyhexyl)-2-oxoacetamide] has an IC50 [1] of under 5 µM, an EC50 (HBV) of 1 to 10 µM and a CC50 at 6 days [2] of over 100 µM.
With O=C(NCCCCCO)C(=O)N1CCN(C(=O)c2cc3c(F)cc(F)cc3[nH]2)CC1 [Example 57, 2-(4-(4,6-difluoro-1H-indole-2-carbonyl)piperazin-1-yl)-N-(5-hydroxypentyl)-2-oxoacetamide] the IC50 [1] was under 5 µM, the EC50 (HBV) was 1 to 10 µM and the CC50 at 6 days [2] was over 100 µM.
For C[C@H](O)CNC(=O)C(=O)N1CCN(C(=O)c2cc3c(F)cc(F)cc3[nH]2)CC1 [Example 58, (S)-2-(4-(4,6-difluoro-1H-indole-2-carbonyl)piperazin-1-yl)-N-(2-hydroxypropyl)-2-oxoacetamide], the IC50 [1] was under 5 µM, the EC50 (HBV) was under 1 µM and the CC50 at 6 days [2] was over 100 µM.
Compound CCC(CCO)CNC(=O)C(=O)N1CCN(C(=O)c2cc3c(F)cc(F)cc3[nH]2)CC1 (stereo not drawn) [Example 59, 2-(4-(4,6-difluoro-1H-indole-2-carbonyl)piperazin-1-yl)-N-(2-ethyl-4-hydroxybutyl)-2-oxoacetamide] has an IC50 [1] of under 5 µM, an EC50 (HBV) of under 1 µM and a CC50 at 6 days [2] of over 100 µM.
With CC(O)CCCNC(=O)C(=O)N1CCN(C(=O)c2cc3c(F)cc(F)cc3[nH]2)CC1 (stereo not drawn) [Example 60, 2-(4-(4,6-difluoro-1H-indole-2-carbonyl)piperazin-1-yl)-N-(4-hydroxypentyl)-2-oxoacetamide] the IC50 [1] was under 5 µM, the EC50 (HBV) was under 1 µM and the CC50 at 6 days [2] was over 100 µM.
Compound CC(C)(CCO)CNC(=O)C(=O)N1CCN(C(=O)c2cc3c(F)cc(F)cc3[nH]2)CC1 [Example 61, 2-(4-(4,6-difluoro-1H-indole-2-carbonyl)piperazin-1-yl)-N-(4-hydroxy-2,2-dimethylbutyl)-2-oxoacetamide] has an IC50 [1] of under 5 µM, an EC50 (HBV) of under 1 µM and a CC50 at 6 days [2] of over 100 µM.
Compound O=C(NCCCCO)C(=O)N1CCN(C(=O)c2cc3c(F)cc(F)cc3[nH]2)CC1 [Example 62, 2-(4-(4,6-difluoro-1H-indole-2-carbonyl)piperazin-1-yl)-N-(4-hydroxybutyl)-2-oxoacetamide] has an IC50 [1] of under 5 µM, an EC50 (HBV) of under 1 µM and a CC50 at 6 days [2] of over 100 µM.
Work on COC(C)CNC(=O)C(=O)N1CCN(C(=O)c2cc3c(F)cc(F)cc3[nH]2)CC1 (stereo not drawn) [Example 63, 2-(4-(4,6-difluoro-1H-indole-2-carbonyl)piperazin-1-yl)-N-(2-methoxypropyl)-2-oxoacetamide] yielded an IC50 [1] of under 5 µM, an EC50 (HBV) of under 1 µM and a CC50 at 6 days [2] of over 100 µM.
Compound C[C@@H](O)CNC(=O)C(=O)N1CCN(C(=O)c2cc3c(F)cc(F)cc3[nH]2)CC1 [Example 64, (R)-2-(4-(4,6-difluoro-1H-indole-2-carbonyl)piperazin-1-yl)-N-(2-hydroxypropyl)-2-oxoacetamide] has an IC50 [1] of under 5 µM, an EC50 (HBV) of under 1 µM and a CC50 at 6 days [2] of over 100 µM.
With COC1(CNC(=O)C(=O)N2CCN(C(=O)c3cc4c(F)cc(F)cc4[nH]3)CC2)CC1 [Example 65, 2-(4-(4,6-difluoro-1H-indole-2-carbonyl)piperazin-1-yl)-N-((1-methoxycyclopropyl)methyl)-2-oxoacetamide] the IC50 [1] was under 5 µM, the EC50 (HBV) was under 1 µM and the CC50 at 6 days [2] was over 100 µM.
